As usually defined, the IC50 is the midpoint of a concentration-inhibition curve.

Some results are limits rather than exact numbers.

The experiment deals with T1, NLRP3 (Homo sapiens, UniProt Q96P20).
T1 construct: host or cells: THP-1 cells differentiated with PMA
The experiment is described as follows: IL-1β Secretion Assay (NLRP3-dependent IL1β secretion in THP1 cells). It is filed as cell-based. As to conditions: PMA-differentiated THP-1 cells; compounds incubated 20 h; 2.5 μM Nigericin 3 h; HTRF IL-1β readout; read-out: IC50 IL-1β Inhibition. In outline: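 THP-1 cells differentiated with 100 ng/mL PMA for 24 h, then given compound (7-point 3-fold series, 1:200 from DMSO) for 20 h in RPMI+5% FBS. NLRP3 activated with 2.5 μM nigericin for 3 h; secreted IL-1β measured by HTRF; IC50 from logistic fit of % inhibition.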
A general note: In TR-FRET formats the signal depends on donor and acceptor labels being close together.

T1 sequence (Q96P20 whole entry): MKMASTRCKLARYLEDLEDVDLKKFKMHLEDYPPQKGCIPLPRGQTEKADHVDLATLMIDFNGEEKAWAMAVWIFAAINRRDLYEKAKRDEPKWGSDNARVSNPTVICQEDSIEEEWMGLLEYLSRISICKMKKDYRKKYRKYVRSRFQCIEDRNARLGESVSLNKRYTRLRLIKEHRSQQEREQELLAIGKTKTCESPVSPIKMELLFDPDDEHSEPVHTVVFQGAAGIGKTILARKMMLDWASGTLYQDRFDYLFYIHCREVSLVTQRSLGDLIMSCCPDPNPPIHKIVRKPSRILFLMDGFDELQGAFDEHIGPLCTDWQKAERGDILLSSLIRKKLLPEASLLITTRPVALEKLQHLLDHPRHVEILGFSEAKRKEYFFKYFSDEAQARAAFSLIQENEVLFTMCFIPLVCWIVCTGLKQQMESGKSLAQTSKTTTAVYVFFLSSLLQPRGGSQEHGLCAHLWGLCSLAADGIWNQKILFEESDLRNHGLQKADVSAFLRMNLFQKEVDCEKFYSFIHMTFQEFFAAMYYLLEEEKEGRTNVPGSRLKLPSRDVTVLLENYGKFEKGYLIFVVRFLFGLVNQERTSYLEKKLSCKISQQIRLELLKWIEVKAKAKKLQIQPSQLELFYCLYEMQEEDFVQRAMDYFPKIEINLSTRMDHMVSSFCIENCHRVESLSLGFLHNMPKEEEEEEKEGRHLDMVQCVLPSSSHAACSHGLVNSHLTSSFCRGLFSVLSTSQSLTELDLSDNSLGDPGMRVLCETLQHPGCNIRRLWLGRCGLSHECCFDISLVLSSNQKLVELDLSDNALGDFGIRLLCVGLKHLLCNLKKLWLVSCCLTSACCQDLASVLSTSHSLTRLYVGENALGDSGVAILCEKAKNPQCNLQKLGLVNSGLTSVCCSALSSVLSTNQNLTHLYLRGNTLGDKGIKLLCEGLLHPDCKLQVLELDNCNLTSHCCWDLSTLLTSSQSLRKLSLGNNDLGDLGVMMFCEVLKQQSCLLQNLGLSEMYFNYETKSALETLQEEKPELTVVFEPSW

As to `O[C@H]1CCCC[C@@H]1Nc1nnc(-c2ccc(C(F)(F)F)cc2CC(F)(F)F)c2cccn12` [Compound 111, (1S,2S)-2-({1-[2-(2,2,2-trifluoroethyl)-4-(trifluoromethyl)phenyl]pyrrolo[1,2-d][1,2,4]triazin-4-yl}amino)cyclohexan-1-ol], the IC50 was in the range of 0.001 to 0.01 µM. As to `FC(F)(F)c1ccc(-c2nnc(N[C@@H]3CCCOC3)n3cncc23)c(C(F)(F)F)c1` [Compound 254, 1-[2,4-bis(trifluoromethyl)phenyl]-N-[(3R)-oxan-3-yl]imidazo[1,5-d][1,2,4]triazin-4-amine], the IC50 is 0.01 to 0.1 µM. Turning to `CN1CCC[C@@H](Nc2nnc(-c3ccc(C4CC4)cc3CC(F)(F)F)c3cncn23)C1` [Compound 352, 1-[4-cyclopropyl-2-(2,2,2-trifluoroethyl)phenyl]-N-[(3R)-1-methylpiperidin-3-yl]imidazo[1,5-d][1,2,4]triazin-4-amine], the IC50 lay in the range of 0.001 to 0.01 µM. Take `CN1C[C@H](F)C[C@@H](Nc2nnc(-c3ccc(C(F)(F)F)cc3C(F)(F)F)c3cncn23)C1` [Compound 252, 1-[2,4-bis(trifluoromethyl)phenyl]-N-[(3R,5R)-5-fluoro-1-methylpiperidin-3-yl]imidazo[1,5-d][1,2,4]triazin-4-amine]: the IC50 was in the range of 0.001 to 0.01 µM.

Turning to `COc1ccc(-c2nnc(N[C@@H]3C[C@@H](F)CN(C)C3)n3cncc23)c(CC(F)(F)F)c1` [Compound 277, N-[(3R,5R)-5-fluoro-1-methylpiperidin-3-yl]-1-[4-methoxy-2-(2,2,2-trifluoroethyl)phenyl]imidazo[1,5-d][1,2,4]triazin-4-amine], the IC50 was 0.001 to 0.01 µM.

Turning to `COc1ccc(-c2nnc(N[C@@H]3CCCC[C@H]3O)n3nc(C)cc23)c(CC(F)(F)F)c1` [Compound 385, (1R,2R)-2-({4-[4-methoxy-2-(2,2,2-trifluoroethyl)phenyl]-2-methylpyrazolo[1,5-d][1,2,4]triazin-7-yl}amino)cyclohexan-1-ol], the IC50 was 0.001 to 0.01 µM. `CCOc1ccc(-c2nnc(N[C@@H]3CCCN(C)C3)n3cccc23)c(OC(F)(F)F)c1` [Compound 43, 1-[4-ethoxy-2-(trifluoromethoxy)phenyl]-N-[(3R)-1-methylpiperidin-3-yl]pyrrolo[1,2-d][1,2,4]triazin-4-amine]: the IC50 fell in the range of 0.01 to 0.1 µM. Regarding `COc1ccc(-c2nnc(N[C@@H]3CCOC[C@H]3O)n3cc(C)cc23)c(OC(F)(F)F)c1` [Compound 165, (3S,4R)-4-({1-[4-methoxy-2-(trifluoromethoxy)phenyl]-7-methylpyrrolo[1,2-d][1,2,4]triazin-4-yl}amino)oxan-3-ol], the IC50 was 0.001 to 0.01 µM. Regarding `C[C@@H](Nc1nnc(-c2ccc(C(F)(F)F)cc2OC(F)F)c2cccn12)c1cccc(O)c1` (single isomer, unassigned) [Compound 102], the IC50 fell in the range of 0.001 to 0.01 µM.

In the case of `CCN1CCC[C@@H](Nc2nnc(-c3ccc(OC)cc3C(F)(F)F)c3cncn23)C1` [Compound 212, N-[(3R)-1-ethylpiperidin-3-yl]-1-[4-methoxy-2-(trifluoromethyl)phenyl]imidazo[1,5-d][1,2,4]triazin-4-amine], the IC50 is less than 0.001 µM. In the case of `COc1ccc(-c2nnc(N[C@H]3CCCC[C@]3(C)O)n3cccc23)c(OC(F)(F)F)c1` (single isomer, unassigned) [Compound 180], the IC50 lay in the range of 0.001 to 0.01 µM. `COc1ccc(-c2nnc(N[C@@H]3CCCN(C)C3)n3cncc23)c(OC(F)(F)F)c1` [Compound 208, 1-[4-methoxy-2-(trifluoromethoxy)phenyl]-N-[(3R)-1-methylpiperidin-3-yl]imidazo[1,5-d][1,2,4]triazin-4-amine]: the IC50 was less than 0.001 µM. `C[C@]1(O)C[C@@H](Nc2nnc(-c3ccc(C(F)(F)F)cc3CC(F)(F)F)c3cncn23)C1` [Compound 263, (1s,3s)-1-methyl-3-({1-[2-(2,2,2-trifluoroethyl)-4-(trifluoromethyl)phenyl]imidazo[1,5-d][1,2,4]triazin-4-yl}amino)cyclobutan-1-ol]: the half-maximal inhibitory concentration (IC50) is less than 0.001 µM. In the case of `CCN1CCC[C@@H](Nc2nnc(-c3ccc(C(F)(F)F)cc3C(N)=O)c3cc(C)nn23)C1` [Compound 372, 2-(7-{[(3R)-1-ethylpiperidin-3-yl]amino}-2-methylpyrazolo[1,5-d][1,2,4]triazin-4-yl)-5-(trifluoromethyl)benzamide], the IC50 fell in the range of 0.01 to 0.1 µM. Turning to `O[C@H]1CCOC[C@@H]1Nc1nnc(-c2ccc(C(F)(F)F)cc2CC(F)(F)F)c2cncn12` [Compound 400, (3S,4S)-3-({1-[2-(2,2,2-trifluoroethyl)-4-(trifluoromethyl)phenyl]imidazo[1,5-d][1,2,4]triazin-4-yl}amino)oxan-4-ol], the IC50 fell in the range of 0.01 to 0.1 µM.

As for `CN1C[C@H](F)C[C@@H](Nc2nnc(-c3ccc(OC(F)F)cc3OC(F)(F)F)c3cccn23)C1` [Compound 87, 1-[4-(difluoromethoxy)-2-(trifluoromethoxy)phenyl]-N-[(3R,5R)-5-fluoro-1-methylpiperidin-3-yl]pyrrolo[1,2-d][1,2,4]triazin-4-amine], the IC50 lay in the range of 0.001 to 0.01 µM. For the compound `CN1CCC[C@@H](CNc2nnc(-c3ccc(C(F)(F)F)cc3CC(F)(F)F)c3cccn23)C1` [Compound 146, N-{[(3S)-1-methylpiperidin-3-yl]methyl}-1-[2-(2,2,2-trifluoroethyl)-4-(trifluoromethyl)phenyl]pyrrolo[1,2-d][1,2,4]triazin-4-amine], the IC50 was in the range of 0.001 to 0.01 µM. Consider `COc1ccc(-c2nnc(N[C@@H]3CCC[C@H]3O)n3cncc23)c(OC(F)(F)F)c1` [Compound 221, (1R,2R)-2-({1-[4-methoxy-2-(trifluoromethoxy)phenyl]imidazo[1,5-d][1,2,4]triazin-4-yl}amino)cyclopentan-1-ol], for which the IC50 lay within 0.01 to 0.1 µM.

As for `CCN1CCC[C@@H](Nc2nnc(-c3ccc(OC)cc3OC(F)F)c3c(F)ccn23)C1` [Compound 56, 1-[2-(difluoromethoxy)-4-methoxyphenyl]-N-[(3R)-1-ethylpiperidin-3-yl]-8-fluoropyrrolo[1,2-d][1,2,4]triazin-4-amine], the IC50 is less than 0.001 µM. Under `C[C@@H](O)CNc1nnc(-c2ccc(C(F)(F)F)cc2OC(F)F)c2cccn12` [Compound 63, (2R)-1-({1-[2-(difluoromethoxy)-4-(trifluoromethyl)phenyl]pyrrolo[1,2-d][1,2,4]triazin-4-yl}amino)propan-2-ol] stands 0.001 to 0.01 µM; under `CCN1CC[C@@H](O)[C@@H](Nc2nnc(-c3ccc(OC)cc3OC(F)F)c3cccn23)C1` [Compound 175, (3S,4R)-3-({1-[2-(difluoromethoxy)-4-methoxyphenyl]pyrrolo[1,2-d][1,2,4]triazin-4-yl}amino)-1-ethylpiperidin-4-ol], less than 0.001 µM; under `OC[C@H]1C[C@@H](Nc2nnc(-c3ccc(C(F)(F)F)cc3C(F)(F)F)c3cncn23)C1` [Compound 257, [(1s,3s)-3-({1-[2,4-bis(trifluoromethyl)phenyl]imidazo[1,5-d][1,2,4]triazin-4-yl}amino)cyclobutyl]methanol], 0.001 to 0.01 µM. Consider `COc1ccc(-c2nnc(NC3CC(C)(CO)C3)n3cncc23)c(CC(F)(F)F)c1` (stereo not shown) [Compound 337, [3-({1-[4-methoxy-2-(2,2,2-trifluoroethyl)phenyl]imidazo[1,5-d][1,2,4]triazin-4-yl}amino)-1-methylcyclobutyl]methanol], for which the IC50 was in the range of 0.01 to 0.1 µM.

On to `CN1CCC[C@@H](Nc2nnc(-c3ccc(C4CC4)cc3C(F)(F)F)c3cncn23)C1` [Compound 207, 1-[4-cyclopropyl-2-(trifluoromethyl)phenyl]-N-[(3R)-1-methylpiperidin-3-yl]imidazo[1,5-d][1,2,4]triazin-4-amine], for which the 50% inhibitory concentration (IC50) is less than 0.001 µM. For the compound `CCC(=O)c1ccc(-c2nnc(N[C@@H]3CCCN(C)C3)n3cccc23)c(OC(F)F)c1` [Compound 95, 1-[3-(difluoromethoxy)-4-(4-{[(3R)-1-methylpiperidin-3-yl]amino}pyrrolo[1,2-d][1,2,4]triazin-1-yl)phenyl]propan-1-one], the IC50 lay within 0.001 to 0.01 µM. Under `FC(F)Oc1ccc(-c2nnc(Nc3cc[nH]n3)n3cccc23)c(OC(F)(F)F)c1` [Compound 155, 1-[4-(difluoromethoxy)-2-(trifluoromethoxy)phenyl]-N-(1H-pyrazol-3-yl)pyrrolo[1,2-d][1,2,4]triazin-4-amine] stands 0.01 to 0.1 µM; under `CCN1CCC[C@@H](Nc2nnc(-c3ccc(OC)cc3OC(F)(F)F)c3c(F)ccn23)C1` [Compound 50, N-[(3R)-1-ethylpiperidin-3-yl]-8-fluoro-1-[4-methoxy-2-(trifluoromethoxy)phenyl]pyrrolo[1,2-d][1,2,4]triazin-4-amine], less than 0.001 µM. For the compound `COc1ccc(-c2nnc(N[C@@H]3C[C@@H](F)CN(C)C3)n3ccc(F)c23)c(OC(F)(F)F)c1` [Compound 52, 8-fluoro-N-[(3R,5R)-5-fluoro-1-methylpiperidin-3-yl]-1-[4-methoxy-2-(trifluoromethoxy)phenyl]pyrrolo[1,2-d][1,2,4]triazin-4-amine], the IC50 lay within 0.001 to 0.01 µM.

Turning to `COc1ccc(-c2nnc(NC[C@H](C)O)n3cccc23)c(OC(F)(F)F)c1` [Compound 65, (2S)-1-({1-[4-methoxy-2-(trifluoromethoxy)phenyl]pyrrolo[1,2-d][1,2,4]triazin-4-yl}amino)propan-2-ol], the 50% inhibitory concentration (IC50) fell in the range of 0.01 to 0.1 µM.

Turning to `O[C@@H]1CCCC[C@H]1Nc1nnc(-c2ccc(Br)cc2OC(F)(F)F)c2cncn12` [Compound 307, (1R,2R)-2-({1-[4-bromo-2-(trifluoromethoxy)phenyl]imidazo[1,5-d][1,2,4]triazin-4-yl}amino)cyclohexan-1-ol], the IC50 fell in the range of 0.001 to 0.01 µM. As to `Cc1cc2c(-c3ccc(C(F)(F)F)cc3C(F)(F)F)nnc(N[C@H]3C[C@@](C)(O)C3)n2c1` [Compound 107, (1s,3s)-3-({1-[2,4-bis(trifluoromethyl)phenyl]-7-methylpyrrolo[1,2-d][1,2,4]triazin-4-yl}amino)-1-methylcyclobutan-1-ol], the half-maximal inhibitory concentration (IC50) is 0.01 to 0.1 µM.

The values above are taken from US20250179078A1, “INHIBITORS OF NLRP3” (PTC THERAPEUTICS, INC., priority 2022, published 2025).
